Test results as given in patent publication US20250084121A1, “BIOREACTIVE COMPOSITIONS AND METHODS OF USE THEREOF” (The Regents of the University of California, priority 2018, published 2025).

Legend:
[1] = system: E. coli DH10B cells; assay: Growth curve of E. coli DH10B cells in the presence or absence of FSY; format: cell-based; conditions: 1 mM FSY, 37° C.
Method: FIG. 6 provides a growth curve of E. coli DH10B cells at 37° C. in the presence or absence of 1 mM FSY. The experiments were repeated for three times.
The incorporation specificity of FSY into proteins in E. coli was evaluated. The Zspa affibody (Afb) gene containing a TAG codon at position 36 (Afb-36TAG) was co-expressed with the tRNA^Pyl/FSYRS pair in E. coli. In the absence of FSY, no full-length Afb was detected; when 1 mM FSY was added in growth media, full-length Afb36FSY was produced with a yield of 1.6 mg/L (FIG. 1C). The purified Afb36FSY was analyzed by electrospray ionization time-of-flight mass spectrometry (ESI-TOF MS) (FIG. 1D). A peak observed at 7855.96 Da corresponds to intact Afb containing FSY at site 36 (Afb36FSY: expected 7856.69 Da). A peak measured at 7724.77 Da corresponds to Afb36FSY lacking the initiating Met (Afb36FSY-Met: expected 7725.50 Da). […] FSY was also incorporated at position 24 of the Z protein and analyzed with tandem MS.

[2] = system: HeLa-EGFP-182TAG reporter cells; assay: Cell viability assay with various concentrations of FSY; format: cell-based
[3] = system: 293T cells; assay: as above; format: cell-based
[4] = system: HeLa-EGFP-182TAG reporter cells; assay: FACS analysis of Uaa incorporation into EGFP-182TAG reporter cells; format: cell-based
Method: (§1) FSY incorporation into proteins in mammalian cells was tested. HeLa-EGFP-182TAG reporter cells were transfected with plasmid pMP-FSYRS-3×tRNA, which expresses FSYRS and tRNA^Pyl genes. Wang et al, Nat. Neurosci., 10:1063-1072 (2007). Suppression of the 182TAG codon would produce full-length EGFP rendering cells fluorescent. After transfection, cells were incubated with FSY of various concentrations at 37° C. for 24 or 48 h followed by flow cytometry. […] The fluorescence intensity increased with FSY concentration and incubation time (FIG. 2B, FIG. 7). As a positive control, p-azido-L-phenylalanine (AzF) was incorporated into reporter cells in parallel using plasmid pIre-Azi3, which is the most efficient Uaa incorporation system in mammalian cells in our hands. Coin et al, Cell, 155:1258-1269 (2013). […] No fluorescence signal was detected when FSY was not added.
FACS analysis of Uaa incorporation into HeLa-GFP-182TAG reporter cells: One day before transfection, 4.5×10^4 HeLa-EGFP-182TAG reporter cells (Wang et al, Nat. Neurosci., 10:1063-1072 (2007)) were seeded in a Greiner bio-one 24 well-cell culture dish containing 500 μL of DMEM media with 10% FBS, and incubated at 37° C. in a CO2 incubator. […] The cells were resuspended in 300 μL of FACS buffer (1×PBS, 2% FBS, 1 mM EDTA, 0.1% sodium azide, […]) and analyzed by BD LSRFortessa™ cell analyzer.

[5] = system: HeLa-EGFP-182TAG reporter cells; assay: Fluorescence confocal microscopy of reporter cells; format: cell-based; conditions: in the presence of FSY
Method: as §1, with “(2013). FSY incorporation compared favorably with AzF, reaching 76% of the AzF level. […] Chen et al, J. Am. Chem. Soc., 138:7353-7364 (2016).” for “(2013).”
Fluorescence confocal microscopy of HeLa-EGFP-182TAG reporter cells: One day before transfection, 4.5×10^4 HeLa-EGFP-182TAG cells were seeded in a Greiner bio-one CELLview glass bottom dish containing 500 μL of DMEM media with 10% FBS, and incubated at 37° C. in a CO2 incubator. […]

[6] = molecular target: T1, extracellular domain of the hGH receptor (Homo sapiens, UniProt P10912); assay: Covalent crosslinking of hGH with the extracellular domain of hGH receptor (Western blot); format: binding; conditions: PBS buffer, different durations of time, Western blot anti-Hisx6
T1 construct: incubated with the extracellular domain of the hGH receptor
T1 sequence (P10912 19-264): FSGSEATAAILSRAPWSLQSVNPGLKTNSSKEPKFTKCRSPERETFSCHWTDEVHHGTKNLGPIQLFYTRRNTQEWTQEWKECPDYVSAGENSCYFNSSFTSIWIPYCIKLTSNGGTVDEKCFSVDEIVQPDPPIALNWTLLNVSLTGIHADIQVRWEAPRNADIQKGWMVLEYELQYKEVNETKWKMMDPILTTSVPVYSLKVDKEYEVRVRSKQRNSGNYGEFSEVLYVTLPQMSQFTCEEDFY

[7] = system: STAT5 phosphorylation in BAF3 cells, a cell line with hGH receptor expression; assay: pSTAT5 production in BAF3 cells upon stimulation by hGH (Western blot); format: cell-based; conditions: Western blot of cell lysates
Text: It was also examined whether FSY incorporation into hGH would affect its biological activity. Upon hGH binding with its receptor, STAT5 is phosphorylated as a downstream signal via the JAK/STAT pathway, leading to transcription of genes important for cell immunity, proliferation, and apoptosis (Waters, M J. et al. Clin. Exp. Pharmacol. Physiol. 1999, 10760-764). The inventors stimulated BAF3 cells, a cell line with hGH receptor expression, with hGH(WT) and hGH(FSY), and then probed pSTAT5 expression using Western blot analysis of cell lysates.

Row | covalent crosslinking with the hGH receptor (band at ~50 kD) [6] | Molecule | E. coli growth (cytotoxicity) [1] | toxicity to HeLa cells [2] | toxicity to 293T cells [3] | FSY incorporation relative to the AzF level ([4]; EGFP-182TAG suppression in HeLa reporter cells, AzF as positive control) [%] | EGFP fluorescence by flow cytometry ([4]; cells transfected with pMP-FSYRS-3×tRNA, FSY at 37° C. for 24 or 48 h) | cell morphology [5] | stimulation of STAT5 phosphorylation [7]
1 | – | N[C@@H](Cc1ccc(OS(=O)(=O)F)cc1)C(=O)O [FSY, fluorosulfate-L-tyrosine] | did not affect E. coli growth | no obvious toxicity | no obvious toxicity | 76 | Strong EGFP fluorescence | remained normal | –
2 | covalently crosslinked | hGH(FSY): Human growth hormone with FSY genetically incorporated at site 68 | – | – | – | – | – | – | the same effect of stimulating STAT5 phosphorylation as the hGH(WT)
